Where two headings read alike, the source gives them in different places.
Assays:
Format in all cases: cell-based
[1] = tested on: YEM 17 C. glabrata, CgCDR up; settings: 24 hrs, 80% inhibition; for MIC of compound in the presence of fluconazole (+): 1/8 × MIC of fluconazole
[2] = tested on: YEM 24 C. albicans ΔCDR1, ΔCDR2; assay: microbe, parasite or virus in culture; settings: YEM 24, 24 hrs, 80% inhibition; for MIC of compound in the presence of fluconazole (+): 1/8 × MIC of fluconazole
[3] = tested on: YEM 15 C. albicans, CDR1CDR2 up; assay: microbe, parasite or virus in culture; settings: YEM 15, 24 hrs, 80% inhibition; for MIC of compound in the presence of fluconazole (+): 1/8 × MIC of fluconazole
[4] = tested on: YEM 27 C. albicans ΔCDR1ΔCDR2 ΔBENΔFLU1; assay: microbe, parasite or virus in culture; settings: YEM 27, 24 hrs, 80% inhibition; for MIC of compound in the presence of fluconazole (+): 1/8 × MIC of fluconazole
[5] = tested on: YEM 53 C. krusei; assay: FEPI MIC with/without 1/8 fluconazole MIC at 24 hrs (Table 11)
[6] = tested on: Aspergillus fumigatus; assay: FEPI MICs in combination with 1/4 the azole's MIC (Table 12); set-up: FEPI MIC (alone): unit not given here; settings: for FEPI MIC with itraconazole, 60% Inh / FEPI MIC with itraconazole, 80% Inh: itraconazole 0.063 μg/ml (1/4 MIC); for FEPI MIC with ketoconazole, 60% Inh / FEPI MIC with ketoconazole, 80% Inh: ketoconazole 4 μg/ml (1/4 MIC); for FEPI MIC (alone): no azole, 35° C., CM Broth
Experimental: The combinations were tested against a series of Candida strain with known expression of efflux pumps or with complete deletion of all known pumps and Aspergillus fumigatus. Results are reported as minimum inhibitory concentration (MIC) of […] in the presence or absence of […]. A total of 27 distinct milbemycins were studied.

[7] = tested on: YEM 13 C. albicans BEN up; assay: microbe, parasite or virus in culture; settings: YEM 13, 24 hrs, 80% inhibition; for MIC of compound in the presence of fluconazole (+): 1/8 × MIC of fluconazole
[8] = tested on: YEM 30 C. albicans wt; assay: FEPI MIC with/without 1/8 fluconazole MIC at 24 hrs (Table 11)
[9] = tested on: YEM 51 C. glabrata wt; assay: as above
[10] = YEM 53, 1/8 × MIC of fluconazole, 24 hrs, 80% inhibition
[11] = fluconazole 32 μg/ml (1/4 MIC), 60% inhibition
[12] = fluconazole 32 μg/ml (1/4 MIC), 80% inhibition
[13] = YEM 30, 1/8 × MIC of fluconazole, 24 hrs, 80% inhibition
[14] = YEM 51, 1/8 × MIC of fluconazole, 24 hrs, 80% inhibition

CO[C@H]1C[C@@]2(O)/C(C=O)=C/C=C/[C@H](C)C/C(C)=C/C[C@@H]3C[C@@H](C[C@]4(CC[C@H](C)[C@@H](C)O4)O3)OC(=O)[C@@H]2C=C1C [Compound 5, Milbemycin β1 aldehyde]
MIC of compound in the presence of fluconazole (+) [1]: 0.125 µg/mL
MIC of compound in the absence of fluconazole (−) [1]: > 64 µg/mL
MIC of compound in the presence of fluconazole (+) [2]: > 64 µg/mL
MIC of compound in the absence of fluconazole (−) [2]: > 64 µg/mL
MIC of compound in the presence of fluconazole (+) [3]: ≦0.03
MIC of compound in the absence of fluconazole (−) [3]: > 64 µg/mL
MIC of compound in the presence of fluconazole (+) [4]: 64 µg/mL
MIC of compound in the absence of fluconazole (−) [4]: > 64 µg/mL
MIC of compound in the presence of fluconazole (+) [5, 10]: > 64 µg/mL
MIC of compound in the absence of fluconazole (−) ([5]; YEM 53, 24 hrs, 80% inhibition): > 64 µg/mL
FEPI MIC with fluconazole, 60% Inh [6, 11]: 4
FEPI MIC with fluconazole, 80% Inh [6, 12]: 64
FEPI MIC with itraconazole, 60% Inh ([6]; 60% inhibition): 0.5
FEPI MIC with itraconazole, 80% Inh ([6]; 80% inhibition): 32
FEPI MIC with ketoconazole, 60% Inh ([6]; 60% inhibition): ≦0.063
FEPI MIC with ketoconazole, 80% Inh ([6]; 80% inhibition): ≦0.063
FEPI MIC (alone) ([6]; 80% inhibition): 64
MIC of compound in the presence of fluconazole (+) [7]: 64 µg/mL
MIC of compound in the absence of fluconazole (−) [7]: > 64 µg/mL
MIC of compound in the presence of fluconazole (+) [8, 13]: ≦0.03
MIC of compound in the absence of fluconazole (−) ([8]; YEM 30, 24 hrs, 80% inhibition): > 64 µg/mL
MIC of compound in the presence of fluconazole (+) [9, 14]: 0.25 µg/mL
MIC of compound in the absence of fluconazole (−) ([9]; YEM 51, 24 hrs, 80% inhibition): > 64 µg/mL

CCCCC(C)C(=O)OC1C(C)C(CC)OC2(CC3CC(CC=C(C)CC(C)C=CC=C4COC5C(O)C(C)=CC(C(=O)O3)C45O)O2)C1O (stereo not drawn) [Compound 10, Milbemycin α7]
MIC of compound in the presence of fluconazole (+) [1]: 1 µg/mL
MIC of compound in the absence of fluconazole (−) [1]: > 64 µg/mL
MIC of compound in the presence of fluconazole (+) [2]: > 64 µg/mL
MIC of compound in the absence of fluconazole (−) [2]: > 64 µg/mL
MIC of compound in the presence of fluconazole (+) [3]: ≦0.03
MIC of compound in the absence of fluconazole (−) [3]: > 64 µg/mL
MIC of compound in the presence of fluconazole (+) [4]: > 64 µg/mL
MIC of compound in the absence of fluconazole (−) [4]: > 64 µg/mL
MIC of compound in the presence of fluconazole (+) [5, 10]: > 64 µg/mL
MIC of compound in the absence of fluconazole (−) ([5]; YEM 53, 24 hrs, 80% inhibition): > 64 µg/mL
FEPI MIC with fluconazole, 60% Inh [6, 11]: 0.25
FEPI MIC with fluconazole, 80% Inh [6, 12]: 4
FEPI MIC with itraconazole, 60% Inh ([6]; 60% inhibition): 1
FEPI MIC with itraconazole, 80% Inh ([6]; 80% inhibition): 8
FEPI MIC with ketoconazole, 60% Inh ([6]; 60% inhibition): 0.25
FEPI MIC with ketoconazole, 80% Inh ([6]; 80% inhibition): 0.25
FEPI MIC (alone) ([6]; 80% inhibition): >64
MIC of compound in the presence of fluconazole (+) [7]: > 64 µg/mL
MIC of compound in the absence of fluconazole (−) [7]: > 64 µg/mL
MIC of compound in the presence of fluconazole (+) [8, 13]: ≦0.03
MIC of compound in the absence of fluconazole (−) ([8]; YEM 30, 24 hrs, 80% inhibition): > 64 µg/mL
MIC of compound in the presence of fluconazole (+) [9, 14]: 2 µg/mL
MIC of compound in the absence of fluconazole (−) ([9]; YEM 51, 24 hrs, 80% inhibition): > 64 µg/mL

CC1=C[C@H]2C(=O)O[C@H]3C[C@@H](C/C=C(\C)C[C@@H](C)/C=C/C=C4\CO[C@H]([C@@H]1O)[C@@]42O)O[C@@]1(CC[C@H](C)[C@@H](C(C)C)O1)C3 [Compound 12, Milbemycin D]
MIC of compound in the presence of fluconazole (+) [1]: 32 µg/mL
MIC of compound in the absence of fluconazole (−) [1]: > 64 µg/mL
MIC of compound in the presence of fluconazole (+) [2]: > 64 µg/mL
MIC of compound in the absence of fluconazole (−) [2]: > 64 µg/mL
MIC of compound in the presence of fluconazole (+) [3]: ≦0.03
MIC of compound in the absence of fluconazole (−) [3]: > 64 µg/mL
MIC of compound in the presence of fluconazole (+) [4]: 64 µg/mL
MIC of compound in the absence of fluconazole (−) [4]: > 64 µg/mL
MIC of compound in the presence of fluconazole (+) [5]: 8 µg/mL
MIC of compound in the absence of fluconazole (−) ([5]; YEM 53, 24 hrs, 80% inhibition): > 64 µg/mL
FEPI MIC with fluconazole, 60% Inh [6]: 16
FEPI MIC with fluconazole, 80% Inh [6]: >64
FEPI MIC with itraconazole, 60% Inh ([6]; 60% inhibition): 8
FEPI MIC with itraconazole, 80% Inh ([6]; 80% inhibition): >64
FEPI MIC with ketoconazole, 60% Inh ([6]; 60% inhibition): 0.125
FEPI MIC with ketoconazole, 80% Inh ([6]; 80% inhibition): 1
FEPI MIC (alone) ([6]; 80% inhibition): >64
MIC of compound in the presence of fluconazole (+) [7]: > 64 µg/mL
MIC of compound in the absence of fluconazole (−) [7]: > 64 µg/mL
MIC of compound in the presence of fluconazole (+) [8]: 4 µg/mL
MIC of compound in the absence of fluconazole (−) ([8]; YEM 30, 24 hrs, 80% inhibition): > 64 µg/mL
MIC of compound in the presence of fluconazole (+) [9]: 8 µg/mL
MIC of compound in the absence of fluconazole (−) ([9]; YEM 51, 24 hrs, 80% inhibition): > 64 µg/mL
